For 29 molecules, EC50 results are on record in patent US9682940B2, “Indazole derivatives useful as CB-1 inverse agonists” (Janssen Pharmaceutica NV, priority 2015, dated 2017).

Test [1] has as its target Human CB1R (Cannabanoid receptor 1) (Homo sapiens (Human), UniProt P21554). The test is described as follows: CB-1 in vitro cAMP (HTRF) assay in HEK-293 cells. The note with it: HEK-293 cells stably transfected with human CB1R, 250 nM Forskolin, mean where tested more than once, read-out: CB-1 (HEK_cAMP) EC50. In kind it is cell-based. In a few lines:
(§1)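 HEK-293 cells stably expressing human CB1 or CB2 plated overnight, then tested in HBSS/5 mM HEPES/0.1% BSA with 0.5 mM IBMX and forskolin (1.5 μM working dilution). Intracellular cAMP quantified by competitive HTRF immunoassay (d2-cAMP, cryptate anti-cAMP) against a cAMP standard curve; compounds as 1/3 serial dilutions from 10 mM DMSO stocks.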
For orientation: TR-FRET usually uses a lanthanide donor and a delayed reading to cut background.

For test [2], the target named is Human CB2R (Cannabanoid receptor 2) (Homo sapiens (Human), UniProt P34972). Briefly: CB-2 in vitro cAMP (HTRF) assay in HEK-293 cells. In kind it is cell-based. To be noted: HEK-293 cells stably transfected with human CB2R, 250 nM Forskolin, mean where tested more than once, read-out: CB-2 (HEK_cAMP) EC50. Summed up: as §1
Chain of Human CB2R (Cannabanoid receptor 2) (P34972 whole entry): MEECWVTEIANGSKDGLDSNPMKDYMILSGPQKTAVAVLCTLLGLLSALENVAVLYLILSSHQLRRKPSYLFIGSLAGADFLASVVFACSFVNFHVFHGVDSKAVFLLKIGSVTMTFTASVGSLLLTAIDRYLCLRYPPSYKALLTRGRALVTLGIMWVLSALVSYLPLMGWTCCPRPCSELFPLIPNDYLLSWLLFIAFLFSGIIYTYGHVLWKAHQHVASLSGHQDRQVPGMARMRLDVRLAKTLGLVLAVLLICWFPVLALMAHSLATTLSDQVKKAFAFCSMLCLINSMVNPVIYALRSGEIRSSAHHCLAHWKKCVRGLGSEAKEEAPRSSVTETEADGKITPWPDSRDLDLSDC

Molecules are shown by their SMILES. Bounds are passed on as bounds.

Chain of Human CB1R (Cannabanoid receptor 1) (P21554 whole entry): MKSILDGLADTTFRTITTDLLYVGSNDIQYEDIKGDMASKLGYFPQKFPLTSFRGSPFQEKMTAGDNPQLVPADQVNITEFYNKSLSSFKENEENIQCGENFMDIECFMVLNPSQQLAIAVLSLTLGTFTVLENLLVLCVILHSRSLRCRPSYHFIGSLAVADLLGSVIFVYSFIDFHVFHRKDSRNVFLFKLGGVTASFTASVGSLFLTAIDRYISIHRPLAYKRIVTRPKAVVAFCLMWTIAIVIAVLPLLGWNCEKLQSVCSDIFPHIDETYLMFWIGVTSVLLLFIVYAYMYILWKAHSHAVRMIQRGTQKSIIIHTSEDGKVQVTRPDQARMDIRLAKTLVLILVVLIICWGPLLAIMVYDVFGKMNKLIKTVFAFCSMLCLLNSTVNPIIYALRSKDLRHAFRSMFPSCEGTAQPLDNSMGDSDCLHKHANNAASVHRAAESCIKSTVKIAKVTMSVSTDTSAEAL

Broadly, the EC50 is the midpoint of the concentration-response curve. With `COc1cccc(S(=O)(=O)N2CCC(c3c4cc(C(c5ccc(Cl)cc5)c5ccc(Cl)cc5)ccc4nn3C3CC3)CC2)c1` [Compound 150, 5-(bis(4-chlorophenyl)methyl)-2-cyclopropyl-3-(1-(3-methoxyphenylsulfonyl)piperidin-4-yl)-2H-indazole], the EC50 in test [1] is 7 nM; in test [2], greater than 10000 nM.
For `O=C(O)c1ccc(S(=O)(=O)N2CCC(c3n[nH]c4ccc(C(c5ccc(Cl)cc5)c5ccc(Cl)cc5)cc34)C2)cc1` (stereo not shown) [Compound 269], in that order: 590 nM and greater than 10000 nM.
Consider `O=C(O)CC(=O)N1CCC(c2nn(C3CC3)c3ccc(C(c4ccc(Cl)cc4)c4ccc(Cl)cc4)cc23)CC1` [Compound 102], for which the EC50 is 477 nM in test [1] and greater than 10000 nM in test [2].
Taken in the same sequence, the figures for `O=C(O)c1ccccc1S(=O)(=O)N1CCC(c2c3cc(C(c4ccc(Cl)cc4)c4ccc(Cl)cc4)ccc3nn2C2CC2)CC1` [Compound 123] were 5800 nM and greater than 10000 nM.
Take `O=C(O)c1ccc(S(=O)(=O)N2CCC(c3n[nH]c4ccc(C(c5ccc(Cl)cc5)c5ccc(Cl)cc5)cc34)CC2)cc1` [Compound 27]: the EC50 in test [1] was 410 nM; in test [2], greater than 10000 nM.
On to `NC(=O)c1ccc(S(=O)(=O)N2CCC(c3n[nH]c4ccc(C(c5ccc(Cl)cc5)c5ccc(Cl)cc5)cc34)CC2)cc1` [Compound 28], for which the EC50 in test [1] was 134 nM; in test [2], greater than 10000 nM.
For `O=C(O)c1ccc(CN2CCC(c3nn(C4CC4)c4ccc(C(c5ccc(Cl)cc5)c5ccc(Cl)cc5)cc34)CC2)o1` [Compound 250], in that order: 43 nM and greater than 10000 nM.
As for `O=S(=O)(N1CCC(c2nn(-c3nccs3)c3ccc(C(c4ccc(Cl)cc4)c4ccc(Cl)cc4)cc23)CC1)C(F)(F)F` [Compound 37], the values for the EC50 in test [1] and in test [2] were 8 nM and greater than 10000 nM, respectively.
For `O=C(O)c1cccc(S(=O)(=O)N2CCC(c3n[nH]c4ccc(C(c5ccc(Cl)cc5)c5ccc(Cl)cc5)cc34)C2)c1` (stereo not shown) [Compound 273], in that order: 6800 nM and greater than 10000 nM.
Taken in the same sequence, the figures for `O=C(O)c1cccc(CN2CCC(c3n[nH]c4ccc(C(c5ccc(Cl)cc5)c5ccc(Cl)cc5)cc34)CC2)c1` [Compound 225] were 56 nM and 3300 nM.
As for `O=C(O)Cc1cccc(N2CCC(c3n[nH]c4ccc(C(c5ccc(Cl)cc5)c5ccc(Cl)cc5)cc34)CC2)c1` [Compound 214], the EC50 in test [1] was 3240 nM; in test [2], greater than 10000 nM.
For `O=C(O)c1cccc(CN2CCC(c3c4cc(C(c5ccc(Cl)cc5)c5ccc(Cl)cc5)ccc4nn3C3CC3)CC2)n1` [Compound 251, 6-((4-(5-(bis(4-chlorophenyl)methyl)-2-cyclopropyl-2H-indazol-3-yl)piperidin-1-yl)methyl)picolinic acid], in that order: 14 nM and greater than 10000 nM.
For `COC(=O)CC(=O)N1CCC(c2n[nH]c3ccc(C(c4ccc(Cl)cc4)c4ccc(Cl)cc4)cc23)CC1` [Compound 51], in that order: 152 nM and greater than 10000 nM.
For `NC(=O)c1cccc(S(=O)(=O)N2CCC(c3n[nH]c4ccc(C(c5ccc(Cl)cc5)c5ccc(Cl)cc5)cc34)CC2)c1` [Compound 65], in that order: 25 nM and greater than 10000 nM.
`CNC(=O)c1ccc(S(=O)(=O)N2CCC(c3c4cc(C(c5ccc(Cl)cc5)c5ccc(Cl)cc5)ccc4nn3C3CC3)CC2)cc1F` [Compound 176, 4-(4-(5-(bis(4-chlorophenyl)methyl)-2-cyclopropyl-2H-indazol-3-yl)piperidin-1-ylsulfonyl)-2-fluoro-N-methylbenzamide]: the figures for the EC50 in test [1] and in test [2] were 5 nM and greater than 10000 nM, respectively.
For `O=C(O)c1ccc(S(=O)(=O)N2CCC(c3c4cc(C(c5ccc(Cl)cc5)c5ccc(Cl)cc5)ccc4nn3C3CC3)CC2)cc1` [Compound 117, 4-(4-(5-(bis(4-chlorophenyl)methyl)-2-cyclopropyl-2H-indazol-3-yl)piperidin-1-ylsulfonyl)benzoic acid], in that order: 9 nM and 1550 nM.
For `O=C(O)c1ccc(CN2CCC(c3c4cc(C(c5ccc(Cl)cc5)c5ccc(Cl)cc5)ccc4nn3C3CC3)CC2)o1` [Compound 228, 5-((4-(5-(bis(4-chlorophenyl)methyl)-2-cyclopropyl-2H-indazol-3-yl)piperidin-1-yl)methyl)furan-2-carboxylic acid], in that order: 20 nM and greater than 10000 nM.
For `CNC(=O)c1ccc(S(=O)(=O)N2CCC(c3c4cc(C(c5ccc(Cl)cc5)c5ccc(Cl)cc5)ccc4nn3C3CC3)CC2)cn1` [Compound 155, 5-(4-(5-(bis(4-chlorophenyl)methyl)-2-cyclopropyl-2H-indazol-3-yl)piperidin-1-ylsulfonyl)-N-methylpicolinamide], in that order: 6 nM and greater than 10000 nM.
Regarding `CC(c1cccc(C(=O)O)c1)N1CCC(c2n[nH]c3ccc(C(c4ccc(Cl)cc4)c4ccc(Cl)cc4)cc23)C1` (stereo not shown) [Compound 277], the half-maximal effective concentration (EC50) in test [1] turned out to be 1550 nM; in test [2], 7000 nM.
Take `O=C(O)COc1ccc(N2CCC(c3c4cc(C(c5ccc(Cl)cc5)c5ccc(Cl)cc5)ccc4nn3C3CC3)CC2)cc1` [Compound 196]: the EC50 in test [1] is 4180 nM; in test [2] it was greater than 10000 nM.
Taken in the same sequence, the figures for `O=C(NC1CCCC1)N1CCC(c2n[nH]c3ccc(C(c4ccc(Cl)cc4)c4ccc(Cl)cc4)cc23)CC1` [Compound 263] were 234 nM and 2330 nM.
Taken in the same sequence, the figures for `O=S(=O)(N1CCC(c2n[nH]c3ccc(C(c4ccc(Cl)cc4)C4CCCC4)cc23)CC1)C(F)(F)F` (stereo not shown) [Compound 279] were 785 nM and greater than 42000 nM.
For `O=C(O)c1ccc([C@H](c2ccc(Cl)cc2)c2ccc3[nH]nc(C4CCN(S(=O)(=O)C(F)(F)F)CC4)c3c2)cc1` [Compound 231], the EC50 is 4200 nM in test [1] and greater than 10000 nM in test [2].
Taken in the same sequence, the figures for `NC(=O)c1csc(CS(=O)(=O)N2CCC(c3nn(C4CC4)c4ccc(C(c5ccc(Cl)cc5)c5ccc(Cl)cc5)cc34)CC2)c1` [Compound 235] were 22 nM and greater than 10000 nM.
Taken in the same sequence, the figures for `O=C(O)CCC(=O)N1CCC(c2c3cc(C(c4ccc(Cl)cc4)c4ccc(Cl)cc4)ccc3nn2C2CC2)CC1` [Compound 127] were 4760 nM and greater than 10000 nM.
Taken in the same sequence, the figures for `O=C(O)COc1ccc(N2CCC(c3n[nH]c4ccc(C(c5ccc(Cl)cc5)c5ccc(Cl)cc5)cc34)CC2)cc1` [Compound 211] were 4690 nM and greater than 10000 nM.
For `O=S(=O)(CC(F)(F)F)N1CCC(c2n[nH]c3ccc(C(c4ccc(Cl)cc4)c4ccc(Cl)cc4)cc23)CC1` [Compound 53], the EC50 in test [1] is 49 nM; in test [2], greater than 10000 nM.
For `NC(=O)c1ccccc1S(=O)(=O)N1CCC(c2c3cc(C(c4ccc(Cl)cc4)c4ccc(Cl)cc4)ccc3nn2C2CC2)CC1` [Compound 139], in that order: 202 nM and greater than 10000 nM.
For `O=S(=O)(N1CCC(c2nn(C3CC3)c3ccc(C(c4ccc(Cl)cc4)c4ccc(Cl)cc4)cc23)CC1)C(F)(F)F` [Compound 105], in that order: 8 nM and greater than 10000 nM.
